Experimental data: ChEMBL document CHEMBL3751767, “Synthesis, in vitro and in vivo anticancer activities of novel 4-substituted 1,2-bis(4-chlorophenyl)-pyrazolidine-3,5-dione derivatives” (Medchemcomm, 2015)

Assays:
[1] = Cytotoxicity against human MGC803 cells assessed as reduction in cell viability after 72 hrs by MTT assay; format: functional, cell-based; conditions: MGC-803, 72 h
[2] = Cytotoxicity against human EC109 cells assessed as reduction in cell viability after 72 hrs by MTT assay; format: functional, cell-based; conditions: ECa-109, 72 h
MCF7 = assay: Cytotoxicity against human MCF7 cells assessed as reduction in cell viability after 72 hrs by MTT assay; format: functional, cell-based; conditions: MCF7, 72 h
[3] = Cytotoxicity against human SMMC7721 cells assessed as reduction in cell viability after 72 hrs by MTT assay; format: functional, cell-based; conditions: SMMC-7721, 72 h
[4] = Antitumor activity against human MGC803 cells xenografted in nude mouse assessed as reduction in tumor weight at 30 mg/kg, po qd for 28 days relative to control; format: functional, MGC-803; parameters: scale not given: the % may be the effect or the level left

For `CC(C)=C1C(=O)N(c2ccc(Cl)cc2)N(c2ccc(Cl)cc2)C1=O`, the IC50 [1] was 39 µM, the IC50 [2] was 42.1 µM and the IC50 (MCF7) was 39.6 µM. For the same compound, the IC50 [3] was 45.6 µM.
`O=c1[nH]cc(F)c(=O)[nH]1` [FLUOROURACIL] showed an IC50 [1] of 9.2 µM, an IC50 [2] of 15.9 µM and an IC50 (MCF7) of 13.5 µM. The IC50 [3] was 14.2 µM.
For `COc1cc(C=C2C(=O)N(c3ccc(Cl)cc3)N(c3ccc(Cl)cc3)C2=O)cc(OC)c1OC`, the IC50 [1] was 17.3 µM, the IC50 [2] was 10.1 µM and the IC50 (MCF7) was 16.2 µM. For the same compound, the IC50 [3] was 29.5 µM.
`COc1cccc(C=C2C(=O)N(c3ccc(Cl)cc3)N(c3ccc(Cl)cc3)C2=O)c1O` gave an IC50 [1] of 24.3 µM, an IC50 [2] of 39 µM and an IC50 (MCF7) of 26.7 µM. The IC50 [3] was 64.9 µM.
Compound `O=C1C(=Cc2c[nH]c3ccccc23)C(=O)N(c2ccc(Cl)cc2)N1c1ccc(Cl)cc1` has an IC50 [1] of 21.8 µM, an IC50 [2] of 23.4 µM and an IC50 (MCF7) of 34.2 µM. For the same compound, the IC50 [3] was 19.6 µM.
In the case of `O=C1C(=Cc2ccc(Cl)cc2)C(=O)N(c2ccc(Cl)cc2)N1c1ccc(Cl)cc1`, the IC50 [1] is reported as 32.6 µM, the IC50 [2] is reported as 17.3 µM and the IC50 (MCF7) is reported as 28.5 µM. For the same compound, the IC50 [3] was 30.9 µM.
`COc1cccc(C=C2C(=O)N(c3ccc(Cl)cc3)N(c3ccc(Cl)cc3)C2=O)c1` showed an IC50 [1] of 26.6 µM, an IC50 [2] of 29 µM and an IC50 (MCF7) of 18.1 µM. For the same compound, the IC50 [3] was 30.2 µM.
In the case of `COc1ccc(C=C2C(=O)N(c3ccc(Cl)cc3)N(c3ccc(Cl)cc3)C2=O)cc1OC`, the IC50 [1] is reported as greater than 128 µM, the IC50 [2] is reported as greater than 128 µM and the IC50 (MCF7) is reported as greater than 128 µM. The IC50 [3] was greater than 128 µM.
Work on `O=C1C(=Cc2ccc(O)cc2)C(=O)N(c2ccc(Cl)cc2)N1c1ccc(Cl)cc1` yielded an IC50 [1] of 19.5 µM, an IC50 [2] of 34.2 µM and an IC50 (MCF7) of 23.2 µM. The IC50 [3] was 20.6 µM.
Work on `CC(=C1C(=O)N(c2ccc(Cl)cc2)N(c2ccc(Cl)cc2)C1=O)c1ccc(O)cc1` yielded an IC50 [1] of 42.8 µM, an IC50 [2] of 55.6 µM and an IC50 (MCF7) of 76.5 µM. It also gave an IC50 [3] of 57 µM.
Compound `CCCCCOC(=O)Nc1nc(=O)n([C@@H]2O[C@H](C)[C@@H](O)[C@H]2O)cc1F` [CAPECITABINE] has an Activity [4] of 62.7%.
Work on `COc1cc(C=C2C(=O)N(c3ccc(Cl)cc3)N(c3ccc(Cl)cc3)C2=O)ccc1O` yielded an IC50 [1] of 21.8 µM, an IC50 [2] of 7.1 µM and an IC50 (MCF7) of 22.8 µM. For the same compound, the IC50 [3] was 64.9 µM.
`O=C1C(=Cc2cccc(Cl)c2)C(=O)N(c2ccc(Cl)cc2)N1c1ccc(Cl)cc1` gave an IC50 [1] of 14.4 µM, an IC50 [2] of 22.6 µM and an IC50 (MCF7) of 18.3 µM. It also gave an IC50 [3] of 20.2 µM.
`O=C1C(=Cc2ccco2)C(=O)N(c2ccc(Cl)cc2)N1c1ccc(Cl)cc1` showed an IC50 [1] of 12.8 µM, an IC50 [2] of 14.3 µM and an IC50 (MCF7) of 20.3 µM. For the same compound, the IC50 [3] was 19.5 µM.
In the case of `CN(C)c1ccc(C=C2C(=O)N(c3ccc(Cl)cc3)N(c3ccc(Cl)cc3)C2=O)cc1`, the IC50 [1] is reported as 80.2 µM, the IC50 [2] is reported as greater than 128 µM and the IC50 (MCF7) is reported as greater than 128 µM. The IC50 [3] was greater than 128 µM.
Compound `O=C1C(=Cc2ccc(F)cc2)C(=O)N(c2ccc(Cl)cc2)N1c1ccc(Cl)cc1` has an IC50 [1] of 26 µM, an IC50 [2] of 35.6 µM and an IC50 (MCF7) of 31.4 µM. It also gave an IC50 [3] of 23.3 µM.
For `COc1cccc(C=C2C(=O)N(c3ccc(Cl)cc3)N(c3ccc(Cl)cc3)C2=O)c1OC`, the IC50 [1] was 29.6 µM, the IC50 [2] was 6.8 µM and the IC50 (MCF7) was 11.9 µM. The IC50 [3] was 14.1 µM.
`COc1ccccc1C=C1C(=O)N(c2ccc(Cl)cc2)N(c2ccc(Cl)cc2)C1=O` gave an IC50 [1] of 28.6 µM, an IC50 [2] of 30.4 µM and an IC50 (MCF7) of 26.3 µM. For the same compound, the IC50 [3] was 25.8 µM.
Work on `O=C1C(=Cc2ccc(Br)cc2)C(=O)N(c2ccc(Cl)cc2)N1c1ccc(Cl)cc1` yielded an IC50 [1] of 16.9 µM, an IC50 [2] of 12.3 µM and an IC50 (MCF7) of 30.4 µM. It also gave an IC50 [3] of 16.6 µM.
In the case of `O=C1C(=Cc2ccc(F)c(F)c2)C(=O)N(c2ccc(Cl)cc2)N1c1ccc(Cl)cc1`, the IC50 [1] is reported as 35.7 µM, the IC50 [2] is reported as 13.1 µM and the IC50 (MCF7) is reported as 22 µM. It also gave an IC50 [3] of 35.8 µM.
Work on `O=C1C(=Cc2ccccc2)C(=O)N(c2ccc(Cl)cc2)N1c1ccc(Cl)cc1` yielded an IC50 [1] of 27.2 µM, an IC50 [2] of 32.7 µM and an IC50 (MCF7) of 20.2 µM. It also gave an IC50 [3] of 26.2 µM.
Compound `CCC(C)=C1C(=O)N(c2ccc(Cl)cc2)N(c2ccc(Cl)cc2)C1=O` has an IC50 [1] of 66.5 µM, an IC50 [2] of 41.1 µM and an IC50 (MCF7) of 41.6 µM. For the same compound, the IC50 [3] was 49.2 µM.
Compound `COc1ccc(C=C2C(=O)N(c3ccc(Cl)cc3)N(c3ccc(Cl)cc3)C2=O)cc1` has an IC50 [1] greater than 128 µM, an IC50 [2] greater than 128 µM and an IC50 (MCF7) greater than 128 µM. It also gave an IC50 [3] greater than 128 µM.
In the case of `O=C1C(=Cc2ccc(Cl)cc2Cl)C(=O)N(c2ccc(Cl)cc2)N1c1ccc(Cl)cc1`, the IC50 [1] is reported as greater than 128 µM, the IC50 [2] is reported as 60.2 µM and the IC50 (MCF7) is reported as greater than 128 µM. For the same compound, the IC50 [3] was greater than 128 µM.
